Experiments:
[1] = system: Cavia porcellus; assay: Inhibition of histamine induced bronchoconstriction in male albino Dunkin-Hartley guinea pig model at 1 nmol/kg, IT(Intratracheal) preadministered with compound followed by histamine addition at 5 to 30 mins and measured 1 hrs post compound treatment relative to control; conditions: read-out: INH
[2] = system: Cavia porcellus; assay: Inhibition of acetylcholine induced bronchoconstriction in male albino Dunkin-Hartley guinea pig model at 1 nmol/kg, IT(Intratracheal) preadministered with compound followed by acetylcholine addition at 5 to 30 mins and measured 1 hrs post compound treatment relative to control; conditions: read-out: INH
[3] = system: Cavia porcellus; assay: Inhibition of histamine induced bronchoconstriction in male albino Dunkin-Hartley guinea pig model at 1 nmol/kg, IT(Intratracheal) preadministered with compound followed by histamine addition at 5 to 30 mins and measured 24 hrs post compound treatment relative to control; conditions: read-out: INH
[4] = system: Cavia porcellus; assay: Inhibition of acetylcholine induced bronchoconstriction in male albino Dunkin-Hartley guinea pig model at 1 nmol/kg, IT(Intratracheal) preadministered with compound followed by acetylcholine addition at 5 to 30 mins and measured 24 hrs post compound treatment relative to control; conditions: read-out: INH
[5] = Stability in guinea pig lung S9 fraction at 1 uM incubated for 60 mins by LC-MS/MS analysis
[6] = species on record: Cavia porcellus; assay: animal or person; conditions: albino Dunkin-Hartley, 1 h, read-out: INH
Description: Inhibition of acetylcholine induced bronchoconstriction in male albino Dunkin-Hartley guinea pig model at 1 nmol/kg, IT(Intratracheal) preadministered with compound followed by acetylcholine addition at 5 to 30 mins in presence of ICI-118551 and measured 1 hrs post compound treatment relative to control

[7] = species on record: Cavia porcellus; assay: animal or person; conditions: albino Dunkin-Hartley, 24 h, read-out: INH
Description: Inhibition of acetylcholine induced bronchoconstriction in male albino Dunkin-Hartley guinea pig model at 1 nmol/kg, IT(Intratracheal) preadministered with compound followed by acetylcholine addition at 5 to 30 mins in presence of ICI-118551 and measured 24 hrs post compound treatment relative to control

[8] = molecular target: Muscarinic acetylcholine receptor M3 (Cavia porcellus, UniProt Q8VH26); assay: Antagonist activity at M3 receptor in male albino Dunkin-Hartley guinea pig trachea assessed as inhibition of carbachol-induced smooth muscle contraction in presence of propranolol
[9] = molecular target: Beta-2 adrenergic receptor (Cavia porcellus, UniProt Q8K4Z4); assay: Agonist activity at beta2 adrenoceptor in male albino Dunkin-Hartley guinea pig trachea assessed as inhibition of histamine induced smooth muscle contraction
[10] = system: Trachea; assay: Inhibition of carbachol-induced smooth muscle contraction in male albino Dunkin-Hartley guinea pig trachea; conditions: Cavia porcellus, read-out: pIC50 (converted)
[11] = system: Cavia porcellus; assay: Inhibition of histamine induced bronchoconstriction in male albino Dunkin-Hartley guinea pig model at 0.3 nmol/kg, IT(Intratracheal) preadministered with compound followed by histamine addition at 5 to 30 mins and measured 1 hrs post compound treatment relative to control; conditions: read-out: INH
[12] = system: Cavia porcellus; assay: Inhibition of acetylcholine induced bronchoconstriction in male albino Dunkin-Hartley guinea pig model at 0.3 nmol/kg, IT(Intratracheal) preadministered with compound followed by acetylcholine addition at 5 to 30 mins and measured 1 hrs post compound treatment relative to control; conditions: read-out: INH
[13] = system: Cavia porcellus; assay: Inhibition of histamine induced bronchoconstriction in male albino Dunkin-Hartley guinea pig model at 0.3 nmol/kg, IT(Intratracheal) preadministered with compound followed by histamine addition at 5 to 30 mins and measured 16 hrs post compound treatment relative to control; conditions: read-out: INH
[14] = system: Cavia porcellus; assay: Inhibition of acetylcholine induced bronchoconstriction in male albino Dunkin-Hartley guinea pig model at 0.3 nmol/kg, IT(Intratracheal) preadministered with compound followed by acetylcholine addition at 5 to 30 mins and measured 16 hrs post compound treatment relative to control; conditions: read-out: INH
[15] = molecular target: Muscarinic acetylcholine receptor M3 (Homo sapiens, UniProt P20309)
Description: Displacement of Scopolamine methyl chloride,[N-methyl-3H] from human muscarinic M3 receptor assessed as inhibition constant incubated for 2 hrs by Microbeta scintillation counter

[16] = molecular target: Beta-2 adrenergic receptor (Homo sapiens, UniProt P07550)
Description: Displacement of [125I]-Cyanopindolol from human beta2 adrenoceptor assessed as inhibition constant incubated for 1 hrs by Microbeta scintillation counter

[17] = in vitro; conditions: guinea pig, lung S9 fraction
Description: Stability in guinea pig lung S9 fraction assessed as half-life at 1 uM incubated for 60 mins by LC-MS/MS analysis

[18] = in vitro; conditions: human, hepatocytes
Description: Metabolic stability in human hepatocytes assessed as clearance measured per 10^6 cells at 1 uM incubated for 90 mins by LC-MS/MS analysis

[19] = in vitro; conditions: rat, hepatocytes
Description: Metabolic stability in rat hepatocytes assessed as clearance measured per 10^6 cells at 1 uM incubated for 90 mins by LC-MS/MS analysis

[20] = in vitro; conditions: guinea pig, hepatocytes
Description: Metabolic stability in guinea pig hepatocytes assessed as clearance measured per 10^6 cells at 1 uM incubated for 90 mins by LC-MS/MS analysis

[21] = in vitro; conditions: human, lung S9 fraction
Description: Stability in human lung S9 fraction assessed as half-life at 1 uM incubated for 60 mins by LC-MS/MS analysis

[22] = in vitro; conditions: rat, lung S9 fraction
Description: Stability in rat lung S9 fraction assessed as half-life at 1 uM incubated for 60 mins by LC-MS/MS analysis

[23] = in vitro; conditions: human, plasma
Description: Stability in human plasma assessed as half-life at 5 uM incubated for 120 mins by LC-MS/MS analysis

[24] = in vitro; conditions: rat, plasma
Description: Stability in rat plasma assessed as half-life at 5 uM incubated for 120 mins by LC-MS/MS analysis

[25] = in vitro; conditions: guinea pig, plasma
Description: Stability in guinea pig plasma assessed as half-life at 5 uM incubated for 120 mins by LC-MS/MS analysis

[26] = species on record: Cavia porcellus; assay: animal or person; conditions: albino Dunkin-Hartley, 1 h, read-out: INH; remark: listed apart in the source
Description: Inhibition of acetylcholine induced bronchoconstriction in male albino Dunkin-Hartley guinea pig model at 0.3 nmol/kg, IT(Intratracheal) preadministered with compound followed by acetylcholine addition at 5 to 30 mins in presence of ICI-118551 and measured 1 hrs post compound treatment relative to control

[27] = species on record: Cavia porcellus; assay: animal or person; conditions: albino Dunkin-Hartley, 16 h, read-out: INH
Description: Inhibition of acetylcholine induced bronchoconstriction in male albino Dunkin-Hartley guinea pig model at 0.3 nmol/kg, IT(Intratracheal) preadministered with compound followed by acetylcholine addition at 5 to 30 mins in presence of ICI-118551 and measured 16 hrs post compound treatment relative to control

[28] = molecular target: Voltage-gated inwardly rectifying potassium channel KCNH2 (Homo sapiens, UniProt Q12809)
Description: Inhibition of human ERG by patch clamp assay

[29] = molecular target: Sodium channel protein type 5 subunit alpha (Homo sapiens, UniProt Q14524)
Description: Inhibition of human Nav1.5

[30] = molecular target: Voltage-dependent L-type calcium channel subunit alpha-1C (Homo sapiens, UniProt Q13936)
Description: Inhibition of human Cav1.2

[31] = Metabolic stability in rat hepatocytes assessed as parent compound remaining at 10 uM incubated for 60 mins by LC-MS/MS analysis
[32] = Metabolic stability in human hepatocytes assessed as parent compound remaining at 10 uM incubated for 60 mins by LC-MS/MS analysis
[33] = Stability in rat plasma assessed as parent compound remaining at 10 uM incubated for 60 mins by LC-MS/MS analysis
[34] = Stability in human plasma assessed as parent compound remaining at 10 uM incubated for 60 mins by LC-MS/MS analysis
[35] = Drug concentration in male albino Dunkin-Hartley guinea pig lung at 50 nmol/kg, IT(Intratracheal) measured after 0.083 hrs; conditions: inhaled or intranasal
[36] = Drug concentration in male albino Dunkin-Hartley guinea pig lung at 50 nmol/kg, IT(Intratracheal) measured after 3 hrs; conditions: inhaled or intranasal
[37] = Drug concentration in male albino Dunkin-Hartley guinea pig lung at 50 nmol/kg, IT(Intratracheal) measured after 24 hrs; conditions: inhaled or intranasal
[38] = Protein binding in human plasma at 5 uM incubated for 4 hrs by LC-MS/MS analysis
[39] = system: Cavia porcellus; assay: Inhibition of histamine induced bronchoconstriction in male albino Dunkin-Hartley guinea pig model at 3 nmol/kg, IT(Intratracheal) preadministered with compound followed by histamine addition at 5 to 30 mins and measured 1 hrs post compound treatment relative to control; conditions: read-out: INH
[40] = system: Cavia porcellus; assay: Inhibition of acetylcholine induced bronchoconstriction in male albino Dunkin-Hartley guinea pig model at 3 nmol/kg, IT(Intratracheal) preadministered with compound followed by acetylcholine addition at 5 to 30 mins and measured 1 hrs post compound treatment relative to control; conditions: read-out: INH
[41] = species on record: Cavia porcellus; assay: animal or person; conditions: albino Dunkin-Hartley, 1 h, read-out: INH; remark: listed apart in the source
Description: Inhibition of acetylcholine induced bronchoconstriction in male albino Dunkin-Hartley guinea pig model at 3 nmol/kg, IT(Intratracheal) preadministered with compound followed by acetylcholine addition at 5 to 30 mins in presence of ICI-118551 and measured 1 hrs post compound treatment relative to control

[42] = system: Cavia porcellus; assay: Inhibition of acetylcholine induced bronchoconstriction in male albino Dunkin-Hartley guinea pig model at 3 nmol/kg, IT(Intratracheal) preadministered with compound followed by acetylcholine addition at 5 to 30 mins and measured 24 hrs post compound treatment relative to control; conditions: read-out: INH
[43] = Protein binding in rat plasma at 5 uM incubated for 4 hrs by LC-MS/MS analysis

Sequence of Muscarinic acetylcholine receptor M3 (Homo sapiens, UniProt P20309) (P20309 whole entry): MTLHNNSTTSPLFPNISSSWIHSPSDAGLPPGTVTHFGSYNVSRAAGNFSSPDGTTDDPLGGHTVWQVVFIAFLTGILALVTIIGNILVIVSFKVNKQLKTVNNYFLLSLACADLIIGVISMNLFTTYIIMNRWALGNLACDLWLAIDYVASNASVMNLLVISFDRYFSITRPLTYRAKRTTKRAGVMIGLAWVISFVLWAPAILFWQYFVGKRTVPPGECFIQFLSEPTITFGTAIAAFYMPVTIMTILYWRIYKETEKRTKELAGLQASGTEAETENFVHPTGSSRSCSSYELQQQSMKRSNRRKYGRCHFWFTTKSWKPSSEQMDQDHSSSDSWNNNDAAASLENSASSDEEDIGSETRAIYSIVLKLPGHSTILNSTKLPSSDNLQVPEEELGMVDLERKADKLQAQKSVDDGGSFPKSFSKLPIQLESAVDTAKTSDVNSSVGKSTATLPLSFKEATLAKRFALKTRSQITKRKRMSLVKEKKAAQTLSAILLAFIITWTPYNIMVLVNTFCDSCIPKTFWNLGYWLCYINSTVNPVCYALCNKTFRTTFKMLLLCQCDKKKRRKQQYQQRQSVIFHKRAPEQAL
Sequence of Beta-2 adrenergic receptor (Homo sapiens, UniProt P07550) (P07550 whole entry): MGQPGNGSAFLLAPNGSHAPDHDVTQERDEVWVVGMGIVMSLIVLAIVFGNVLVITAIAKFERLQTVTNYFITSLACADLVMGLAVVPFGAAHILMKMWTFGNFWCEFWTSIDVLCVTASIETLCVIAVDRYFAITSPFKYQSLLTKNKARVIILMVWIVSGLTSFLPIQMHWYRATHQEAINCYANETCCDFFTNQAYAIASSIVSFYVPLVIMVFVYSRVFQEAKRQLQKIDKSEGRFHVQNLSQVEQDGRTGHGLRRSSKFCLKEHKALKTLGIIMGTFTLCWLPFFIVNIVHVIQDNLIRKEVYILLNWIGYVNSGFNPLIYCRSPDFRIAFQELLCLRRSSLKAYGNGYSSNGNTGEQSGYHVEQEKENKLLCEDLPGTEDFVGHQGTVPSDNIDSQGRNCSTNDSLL
Sequence of Beta-2 adrenergic receptor (Cavia porcellus, UniProt Q8K4Z4) (Q8K4Z4 whole entry): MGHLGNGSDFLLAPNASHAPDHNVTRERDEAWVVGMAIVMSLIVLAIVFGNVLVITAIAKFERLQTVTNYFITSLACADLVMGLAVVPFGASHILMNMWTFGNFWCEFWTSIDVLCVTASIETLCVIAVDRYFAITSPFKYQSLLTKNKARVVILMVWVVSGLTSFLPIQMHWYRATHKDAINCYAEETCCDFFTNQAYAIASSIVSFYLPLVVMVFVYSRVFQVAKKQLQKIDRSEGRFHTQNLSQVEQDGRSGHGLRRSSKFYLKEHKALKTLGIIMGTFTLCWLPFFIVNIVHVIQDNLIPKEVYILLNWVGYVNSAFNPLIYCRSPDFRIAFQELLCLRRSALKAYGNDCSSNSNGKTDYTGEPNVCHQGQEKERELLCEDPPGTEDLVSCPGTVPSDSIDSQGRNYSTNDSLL
Sequence of Muscarinic acetylcholine receptor M3 (Cavia porcellus, UniProt Q8VH26) (Q8VH26 whole entry): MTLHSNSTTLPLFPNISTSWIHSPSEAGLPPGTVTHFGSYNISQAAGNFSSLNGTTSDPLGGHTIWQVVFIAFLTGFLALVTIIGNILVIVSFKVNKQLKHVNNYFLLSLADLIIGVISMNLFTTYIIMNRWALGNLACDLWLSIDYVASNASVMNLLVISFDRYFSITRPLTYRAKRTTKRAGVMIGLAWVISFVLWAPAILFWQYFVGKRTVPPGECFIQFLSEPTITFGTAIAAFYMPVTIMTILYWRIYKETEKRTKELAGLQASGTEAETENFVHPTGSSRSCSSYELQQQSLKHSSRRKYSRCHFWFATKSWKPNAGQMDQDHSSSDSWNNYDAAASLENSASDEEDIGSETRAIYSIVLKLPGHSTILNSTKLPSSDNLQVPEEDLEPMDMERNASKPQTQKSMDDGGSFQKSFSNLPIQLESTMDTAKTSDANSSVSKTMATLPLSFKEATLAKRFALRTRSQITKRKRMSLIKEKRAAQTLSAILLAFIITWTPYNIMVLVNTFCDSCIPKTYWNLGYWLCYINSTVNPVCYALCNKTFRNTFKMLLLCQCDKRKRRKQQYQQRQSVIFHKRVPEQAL
Sequence of Sodium channel protein type 5 subunit alpha (Q14524 whole entry): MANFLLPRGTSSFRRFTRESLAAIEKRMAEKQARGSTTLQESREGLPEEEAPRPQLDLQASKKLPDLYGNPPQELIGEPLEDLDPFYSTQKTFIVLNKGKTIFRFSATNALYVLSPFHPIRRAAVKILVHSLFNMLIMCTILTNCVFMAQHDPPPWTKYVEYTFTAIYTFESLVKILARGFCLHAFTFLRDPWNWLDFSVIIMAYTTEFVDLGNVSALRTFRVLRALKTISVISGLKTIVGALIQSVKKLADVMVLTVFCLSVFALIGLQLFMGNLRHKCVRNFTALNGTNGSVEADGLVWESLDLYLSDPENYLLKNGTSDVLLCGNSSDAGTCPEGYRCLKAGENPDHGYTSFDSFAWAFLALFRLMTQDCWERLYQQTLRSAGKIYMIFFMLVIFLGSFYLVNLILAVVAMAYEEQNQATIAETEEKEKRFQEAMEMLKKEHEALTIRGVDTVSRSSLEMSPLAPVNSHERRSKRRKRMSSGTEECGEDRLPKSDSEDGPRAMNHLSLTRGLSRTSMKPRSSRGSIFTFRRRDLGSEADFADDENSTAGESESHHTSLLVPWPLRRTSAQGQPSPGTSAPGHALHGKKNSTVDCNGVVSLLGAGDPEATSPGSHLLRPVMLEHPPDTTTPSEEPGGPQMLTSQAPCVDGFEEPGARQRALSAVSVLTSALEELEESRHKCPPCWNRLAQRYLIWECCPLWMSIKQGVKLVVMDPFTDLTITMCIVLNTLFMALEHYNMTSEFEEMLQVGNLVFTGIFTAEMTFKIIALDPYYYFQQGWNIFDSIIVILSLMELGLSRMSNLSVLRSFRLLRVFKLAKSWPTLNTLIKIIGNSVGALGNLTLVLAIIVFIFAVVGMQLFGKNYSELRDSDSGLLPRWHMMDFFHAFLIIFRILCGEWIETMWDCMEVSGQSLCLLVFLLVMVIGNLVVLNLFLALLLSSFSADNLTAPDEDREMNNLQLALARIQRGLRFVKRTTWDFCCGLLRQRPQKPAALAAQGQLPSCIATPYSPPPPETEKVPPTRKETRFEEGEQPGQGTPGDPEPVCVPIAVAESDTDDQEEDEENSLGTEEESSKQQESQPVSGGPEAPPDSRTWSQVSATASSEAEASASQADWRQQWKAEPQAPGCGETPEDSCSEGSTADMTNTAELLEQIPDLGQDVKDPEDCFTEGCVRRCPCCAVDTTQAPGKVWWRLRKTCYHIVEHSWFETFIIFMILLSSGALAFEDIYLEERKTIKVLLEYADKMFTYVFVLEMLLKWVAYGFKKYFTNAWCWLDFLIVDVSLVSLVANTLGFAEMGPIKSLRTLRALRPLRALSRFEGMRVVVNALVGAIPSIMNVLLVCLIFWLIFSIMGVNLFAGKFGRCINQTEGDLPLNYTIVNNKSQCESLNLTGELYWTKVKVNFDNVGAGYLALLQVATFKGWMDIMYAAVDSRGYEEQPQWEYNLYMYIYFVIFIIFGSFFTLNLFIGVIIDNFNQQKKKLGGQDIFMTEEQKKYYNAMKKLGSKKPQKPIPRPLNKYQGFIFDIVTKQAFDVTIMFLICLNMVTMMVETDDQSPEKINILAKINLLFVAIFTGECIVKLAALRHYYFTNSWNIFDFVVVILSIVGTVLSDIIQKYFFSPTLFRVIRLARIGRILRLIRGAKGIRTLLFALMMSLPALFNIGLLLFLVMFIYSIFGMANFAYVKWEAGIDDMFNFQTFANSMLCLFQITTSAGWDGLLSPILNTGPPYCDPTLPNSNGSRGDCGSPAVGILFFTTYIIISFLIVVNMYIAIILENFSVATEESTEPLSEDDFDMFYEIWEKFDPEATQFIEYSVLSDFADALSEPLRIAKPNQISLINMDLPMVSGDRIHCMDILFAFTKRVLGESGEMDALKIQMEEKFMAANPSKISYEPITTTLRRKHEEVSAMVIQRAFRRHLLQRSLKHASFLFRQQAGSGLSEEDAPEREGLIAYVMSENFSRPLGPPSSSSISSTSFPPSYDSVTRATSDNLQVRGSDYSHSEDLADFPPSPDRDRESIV

Compound	inhibition in vivo at 0.001 µmol/kg [2] [%]	remaining at 1 h, 1 µM [5] [%]	IC50 [8] [nM]	IC50 [9] [nM]	IC50 [10] [nM]	Ki [15] [nM]	Ki [16] [nM]	half-life at 1 h, 1 µM [17] [h]	hepatocyte CLint at 1.5 h, 1 µM [18] [µL/min/1e6 cells]	hepatocyte CLint at 1.5 h, 1 µM [19] [µL/min/1e6 cells]	hepatocyte CLint at 1.5 h, 1 µM [20] [µL/min/1e6 cells]	half-life at 1 h, 1 µM [21] [h]	half-life at 1 h, 1 µM [22] [h]	half-life at 2 h, 5 µM [23] [h]	half-life at 2 h, 5 µM [24] [h]	half-life at 2 h, 5 µM [25] [h]	fraction unbound at 4 h, 5 µM [38]	other results
Cn1nc(C(=O)OCCCCNC[C@H](O)c2ccc(O)c3[nH]c(=O)ccc23)cc1COc1cccc([C@@H](NC(=O)O[C@H]2CN3CCC2CC3)c2ccccc2)c1	93	98.5																inhibition in vivo at 0.001 µmol/kg [1]: 73%; inhibition in vivo at 0.001 µmol/kg [3]: 51%; inhibition in vivo at 0.001 µmol/kg [4]: 71%; inhibition in vivo at 0.001 µmol/kg [6]: 84%; inhibition in vivo at 0.001 µmol/kg [7]: 45%
CCN1CCC(COC(=O)[C@](O)(c2ccccc2)c2cccc(OCCCNC(=O)c3cc(OC)c(CNC[C@H](O)c4ccc(O)c5[nH]c(=O)ccc45)cc3F)c2)CC1.O=C(O)C(F)(F)F.O=C(O)C(F)(F)F		96.5	3.16	3.16	0.501	0.0126	0.501	4.67	2	27	60	4.67	4.67	> 2.5	0.933	> 2.5		inhibition in vivo at 0.0003 µmol/kg [11]: 85%; inhibition in vivo at 0.0003 µmol/kg [12]: 78%; inhibition in vivo at 0.0003 µmol/kg [13]: 60%; inhibition in vivo at 0.0003 µmol/kg [14]: 62%; inhibition in vivo at 0.0003 µmol/kg [26]: 61%; inhibition in vivo at 0.0003 µmol/kg [27]: 51%
O=C(NCCCOc1cccc([C@](O)(C(=O)O)c2ccccc2)c1)c1ccc(CNC[C@H](O)c2ccc(O)c3[nH]c(=O)ccc23)cc1						> 50.1												IC50 [28]: > 150000 nM; IC50 [29]: > 150000 nM; IC50 [30]: > 150000 nM
O=C(NCCCOc1cccc([C@](O)(C(=O)OCC2CCN(Cc3ccccc3)CC2)c2ccccc2)c1)c1ccc(CNC[C@H](O)c2ccc(O)c3[nH]c(=O)ccc23)cc1	94	14	0.398	0.316	0.501	0.398	0.1	0.35	25	30	316	3.22	2.37	> 2.5	0.45	< 0.0833	0.01	inhibition in vivo at 0.0003 µmol/kg [11]: 34%; inhibition in vivo at 0.001 µmol/kg [1]: 66%; inhibition in vivo at 0.0003 µmol/kg [12]: 49%; inhibition in vivo at 0.001 µmol/kg [3]: 5%; inhibition in vivo at 0.001 µmol/kg [4]: 95%; remaining at 1 h, 10 µM [31]: 70%; remaining at 1 h, 10 µM [32]: 91%; remaining at 1 h, 10 µM [33]: 67%; remaining at 1 h, 10 µM [34]: > 99%; concentration at 0.083 h [35]: 1270 ng/g; concentration at 3 h [36]: 1160 ng/g; concentration at 24 h [37]: 1170 ng/g; inhibition in vivo at 0.0003 µmol/kg [26]: 23%; inhibition in vivo at 0.001 µmol/kg [6]: 87%; inhibition in vivo at 0.001 µmol/kg [7]: 79%
COc1cc(C(=O)NCCCOc2cccc([C@](O)(C(=O)OCC3CCN(Cc4ccccc4)CC3)c3ccccc3)c2)c(F)cc1CNC[C@H](O)c1ccc(O)c2[nH]c(=O)ccc12			0.794	0.1		0.01	0.251	0.433	20	33		1.92	1.85	> 2.5	0.917	0.133		
O=C(NCc1ccc(-c2cccc([C@](O)(C(=O)OCC3CCN(Cc4ccccc4)CC3)c3ccccc3)c2)s1)c1ccc(CNC[C@H](O)c2ccc(O)c3[nH]c(=O)ccc23)cc1						0.251	2.51	2.1	12	50	295	1.47	2.1	> 2.5	> 2.5	0.217		
O=C(c1ccc(CCNC[C@H](O)c2ccc(O)c3[nH]c(=O)ccc23)cc1)N1CCC(c2cccc([C@](O)(C(=O)OCC3CCN(Cc4ccccc4)CC3)c3ccccc3)c2)CC1			2	0.631		0.0631	0.398	1.9	13	36		3	2.47	> 2.5	0.533	0.267		
O=C(NCCCCNC[C@H](O)c1ccc(O)c2[nH]c(=O)ccc12)c1ccc(CNC2(C(=O)OCC3CCN(Cc4ccccc4)CC3)CCc3ccccc32)s1 (mixture of isomers; 33)			0.794	0.0631		2	0.0316										0.06	inhibition in vivo at 0.003 µmol/kg [39]: 83%; inhibition in vivo at 0.003 µmol/kg [40]: 96%; inhibition in vivo at 0.003 µmol/kg [41]: 60%
O=C(c1ccc(OCc2ccc(CNC[C@H](O)c3ccc(O)c4[nH]c(=O)ccc34)cc2)cc1)N1CCC(C(=O)OC2CN3CCC2CC3)(c2ccccc2)CC1 (single isomer, unassigned)	60		2.51	0.501	1	0.251	0.2	3.6	15	27		4.67	3.62	> 2.5	> 2.5	1.82	0.02	inhibition in vivo at 0.003 µmol/kg [39]: 21%; inhibition in vivo at 0.003 µmol/kg [40]: 93%; inhibition in vivo at 0.003 µmol/kg [42]: 68%; fraction unbound at 4 h, 5 µM [43]: 0.15; inhibition in vivo at 0.003 µmol/kg [41]: 90%

— ChEMBL document CHEMBL5500396, “Discovery, Multiparametric Optimization, and Solid-State Driven Identification of CHF-6550, a Novel Soft Dual Pharmacology Muscarinic Antagonist and β2 Agonist (MABA) for the Inhaled Treatment of Respiratory Diseases” (J Med Chem, 2024)
